Numbers after ± are expanded uncertainties.
Columns and labels:
[1] = 100 kPa, Liquid; for speed of sound: Frequency=3 MHz, Single path-length method; for mass density: Vibrating tube method
[2] = xn = mol fraction of the nth substance listed; conditions: 100 kPa, Liquid, x2 = 0; for speed of sound: Frequency=3 MHz, Single path-length method; for mass density: Vibrating tube method

Which results are given for CCCCOCCOCCO [3,6-dioxa-1-decanol]?
speed of sound ([1]; 293.15 K): 1378.2 ± 2.5 m/s; mass density ([1]; 293.15 K): 952.288 ± 0.41 kg/m3; speed of sound ([1]; 298.15 K): 1361.3 ± 2.5 m/s; mass density ([1]; 298.15 K): 948.1 ± 0.41 kg/m3; speed of sound ([1]; 303.15 K): 1344.5 ± 2.5 m/s; mass density ([1]; 303.15 K): 943.909 ± 0.41 kg/m3; speed of sound ([1]; 308.15 K): 1326.4 ± 2.5 m/s; mass density ([1]; 308.15 K): 939.704 ± 0.41 kg/m3; speed of sound ([1]; 313.15 K): 1307.7 ± 2.5 m/s; mass density ([1]; 313.15 K): 935.503 ± 0.41 kg/m3

For CCCCCCCCCCO [decan-1-ol] + CCCCOCCOCCO, which speed of sound ([2]; 293.15 K) is on record?
Its speed of sound is 1396.7 ± 2.5 m/s.

What about the mass density ([2]; 293.15 K) of the same molecule?
The mass density was 829.898 ± 0.42 kg/m3.

What about the speed of sound ([2]; 298.15 K) of the same molecule?
Its speed of sound is 1379.4 ± 2.5 m/s.

What about the mass density ([2]; 298.15 K) of the same molecule?
The mass density was 826.489 ± 0.42 kg/m3.

And the speed of sound ([2]; 303.15 K)?
Its speed of sound is 1362.4 ± 2.5 m/s.

And the mass density ([2]; 303.15 K)?
The mass density was 823.069 ± 0.42 kg/m3.

And the speed of sound ([2]; 308.15 K)?
Its speed of sound is 1345.6 ± 2.5 m/s.

And the mass density ([2]; 308.15 K)?
The mass density was 819.635 ± 0.42 kg/m3.

What about the speed of sound ([2]; 313.15 K) of the same molecule?
Its speed of sound is 1329.1 ± 2.5 m/s.

What about the mass density ([2]; 313.15 K) of the same molecule?
Its mass density is 816.188 ± 0.42 kg/m3.

For CCCCCCO [hexan-1-ol] + CCCCOCCOCCO, which speed of sound ([2]; 293.15 K) is on record?
The speed of sound was 1320.4 ± 2.5 m/s.

And the mass density ([2]; 293.15 K)?
The mass density was 819.239 ± 0.42 kg/m3.

And the speed of sound ([2]; 298.15 K)?
The speed of sound was 1303.5 ± 2.5 m/s.

What about the mass density ([2]; 298.15 K) of the same molecule?
Its mass density is 815.652 ± 0.42 kg/m3.

What about the speed of sound ([2]; 303.15 K) of the same molecule?
The speed of sound was 1286.7 ± 2.5 m/s.

What about the mass density ([2]; 303.15 K) of the same molecule?
Its mass density is 812.043 ± 0.42 kg/m3.

What about the speed of sound ([2]; 308.15 K) of the same molecule?
The speed of sound was 1270 ± 2.5 m/s.

What about the mass density ([2]; 308.15 K) of the same molecule?
The mass density was 808.402 ± 0.42 kg/m3.

And the speed of sound ([2]; 313.15 K)?
The speed of sound was 1253.5 ± 2.5 m/s.

What about the mass density ([2]; 313.15 K) of the same molecule?
The mass density was 804.743 ± 0.42 kg/m3.

With CCCCCCCCO [octan-1-ol] + CCCCOCCOCCO as the molecule, how does the speed of sound ([2]; 293.15 K) read?
Its speed of sound is 1364.1 ± 2.4 m/s.

What about the mass density ([2]; 293.15 K) of the same molecule?
Its mass density is 825.337 ± 0.41 kg/m3.

What about the speed of sound ([2]; 298.15 K) of the same molecule?
Its speed of sound is 1347.3 ± 2.4 m/s.

And the mass density ([2]; 298.15 K)?
The mass density was 821.877 ± 0.41 kg/m3.

And the speed of sound ([2]; 303.15 K)?
The speed of sound was 1331 ± 2.4 m/s.

What about the mass density ([2]; 303.15 K) of the same molecule?
Its mass density is 818.4 ± 0.41 kg/m3.

And the speed of sound ([2]; 308.15 K)?
The speed of sound was 1314.3 ± 2.4 m/s.

What about the mass density ([2]; 308.15 K) of the same molecule?
Its mass density is 814.903 ± 0.41 kg/m3.

And the speed of sound ([2]; 313.15 K)?
The speed of sound was 1297.7 ± 2.4 m/s.

What about the mass density ([2]; 313.15 K) of the same molecule?
Its mass density is 811.385 ± 0.41 kg/m3.

— the NIST ThermoML archive (doi:10.1016/j.jct.2018.06.015)
